Assay: solvent given as SMILES

CNCCc1ccc(OC)cc1
Details | solvation free energy, 298 K [kcal/mol]
in C=CCCCCCCC=C | -9.47
in O | -7.94

CCCO
Details | solvation free energy, 298 K [kcal/mol]
in Brc1ccccc1 | -3.66
in C1CCOC1 | -5.22
in C1COCCO1 | -4.52
in C=CCCCCCCCCCCCCCC | -2.96
in CC#N | -4.84
in CC(C)(C)O | -5.55
in CC(C)CC(C)(C)C | -3
in CC(C)CCCC(C)CCCC(C)CCCCC(C)CCCC(C)CCCC(C)C | -2.6
in CC(C)CO | -5.44
in CC(C)O | -5.53
in CC(C)OC(C)C | -4.39
in CCC1CO1 | -5.09
in CCC(C)=O | -4.97
in CCCC(C)O | -5.34
in CCCCC(CC)COC(=O)CCCCC(=O)OCC(CC)CCCC | -4.07
in CCCCCC | -2.99
in CCCCCCC | -2.97
in CCCCCCCC | -2.91
in CCCCCCCCC=CCCCCCCCC(=O)OCC(COC(=O)CCCCCCCC=CCCCCCCCC)OC(=O)CCCCCCCC=CCCCCCCCC | -3.96
in CCCCCCCCCC | -2.76
in CCCCCCCCCCCCCCCC | -2.7
in CCCCCCCCCCO | -4.8
in CCCCCCCCO | -5.02
in CCCCCO | -5.43
in CCCCO | -5.22
in CCCCOC(C)=O | -4.65
in CCCOCCC | -4.2
in CCO | -5.69
in CCOC(=O)c1ccccc1C(=O)OCC | -4.09
in CCOCCO | -5.33
in CCOP(=O)(OCC)OCC | -5.39
in CN1CCCC1=O | -5.69
in CN1CCN(C)C1=O | -5.51
in CN(C)C=O | -5.57
in CO | -5.92
in COC(C)(C)C | -4.6
in COC(C)=O | -4.88
in Cc1ccc(C)cc1 | -3.73
in Cc1cccc(C)c1 | -3.72
in ClC(Cl)(Cl)Cl | -3.53
in Clc1ccccc1 | -3.83
in FC(F)(F)C(F)(F)C(F)(F)C(F)(F)C(F)(F)C(F)(F)C(F)(F)F | -1.69
in FC(F)(F)C(F)(F)C(F)(F)C(F)(F)C(F)(F)C(F)(F)F | -1.74
in NC=O | -4.84
in O | -4.88
in O=CN1CCOCC1 | -5.02
in OCC(O)CO | -4.37
in OCCOCCO | -5.2
in [2H]O[2H] | -4.95
in c1ccccc1 | -3.97

ClCCCl
Details | solvation free energy, 298 K [kcal/mol]
in Brc1cccc2ccccc12 | -4.18
in C1CCOC1 | -5.01
in C1COCCO1 | -4.98
in CC(=O)CC(C)C | -4.68
in CC(=O)N(C)C | -5.01
in CC(=O)OCc1ccccc1 | -4.59
in CC(C)OC(C)C | -3.88
in CCC(C)=O | -4.79
in CCCCCC | -3.75
in CCCCCCC | -3.7
in CCCCCCCC | -3.7
in CCCCCCCCCCCCCC | -3.49
in CCCCCCCCCCCCCCCC | -3.52
in CCCCCCCCN(CCCCCCCC)CCCCCCCC | -3.6
in CCCCCCCCO | -3.78
in CCCCCN(CCCCC)CCCCC | -3.76
in CCCCCl | -4.42
in CCCCN(C=O)CCCC | -4.62
in CCCCN(CCCC)CCCC | -3.65
in CCCCO | -3.98
in CCCCOCCCC | -4.16
in CCO | -4.03
in CCOC(C)=O | -4.72
in CCOCC | -4.45
in CNC(C)=O | -4.45
in COC(=O)OC | -4.73
in COC(C)(C)C | -4.35
in Cc1ccc(C)cc1 | -4.41
in Cc1cccc(C)c1 | -4.45
in Cc1ccccc1C | -4.42
in ClC(Cl)(Cl)Cl | -4.3
in ClC(Cl)Cl | -4.69
in O | -1.79
in [2H]O[2H] | -1.89
in c1ccc2ncccc2c1 | -4.54
in c1ccccc1 | -4.68

c1ccc2nc3ccccc3cc2c1
Details | solvation free energy, 298 K [kcal/mol]
in O | -6.75

CC(=O)CC(=O)c1ccccc1
Details | solvation free energy, 298 K [kcal/mol]
in CCCCCC | -7.72
in CCCCCCC | -7.87
in CCCCCCCC | -7.76
in CCCCCCCCCC | -7.76

CCCCCCCCC(C)=O
Details | solvation free energy, 298 K [kcal/mol]
in O | -2.34

CN1C(C(=O)Nc2ccccn2)=C(O)c2ccccc2S1(=O)=O
Details | solvation free energy, 298 K [kcal/mol]
in CN(C)C=O | -21
in NC=O | -19.3
in O | -15.8

c1ccoc1
Details | solvation free energy, 298 K [kcal/mol]
in CC(=O)N(C)C | -3.72
in CCCCN(C=O)CCCC | -3.27
in CNC(C)=O | -3.23
in O | -0.9

c1ccc2c(c1)sc1ccccc12
Details | solvation free energy, 298 K [kcal/mol]
in CC(=O)N(C)C | -11.5
in CCCCCCCCC=CCCCCCCCC(=O)OCC(COC(=O)CCCCCCCC=CCCCCCCCC)OC(=O)CCCCCCCC=CCCCCCCCC | -10.6
in CN1CCCC1=O | -11.6
in O | -4.05

COC(F)(F)C(Cl)Cl
Details | solvation free energy, 298 K [kcal/mol]
in O | -1.12

CN(C)N=O
Details | solvation free energy, 298 K [kcal/mol]
in CC(C)CC(C)(C)C | -3.83
in O | -6.02

Cc1cnccn1
Details | solvation free energy, 298 K [kcal/mol]
in O | -5.51

O=C=O
Details | solvation free energy, 298 K [kcal/mol]
in Brc1ccccc1 | -0.35
in C1CCC2CCCCC2C1 | -0.22
in C1CCCCC1 | -0.32
in C1CCOC1 | -1.12
in C1COCCO1 | -1.16
in C=CCCCC | -0.56
in C=CCCCCCC | -0.45
in C=CCCCCCCCC | -0.35
in CC1COC(=O)O1 | -0.75
in CC(C)(C)O | -0.41
in CC(C)=O | -1.1
in CC(C)CO | -0.37
in CC(C)O | -0.42
in CCC(C)=O | -0.98
in CCC(C)O | -0.33
in CCCCCC | -0.48
in CCCCCCC | -0.41
in CCCCCCCC | -0.35
in CCCCCCCCCC | -0.27
in CCCCCCCCCCCCCCCC | -0.12
in CCCCCCCCCCO | -0.13
in CCCCCCCCO | -0.22
in CCCCO | -0.4
in CCCCOCCO | -0.26
in CCCCOCCOCCO | -0.23
in CCCCOCCOCCOCCO | -0.48
in CCCO | -0.48
in CCO | -0.57
in CCOCCOCCO | -0.51
in CCOCCOCCOCC | -0.69
in CCc1ccccc1 | -0.21
in CN1CCCC1=O | -0.82
in CN(C)C=O | -0.95
in CN(C)P(=O)(N(C)C)N(C)C | -0.9
in CO | -0.85
in COC(=O)CC#N | -0.67
in COC(C)=O | -1.13
in COCCO | -0.65
in COCCOC | -0.86
in COCCOCCO | -0.7
in COCCOCCOC | -0.84
in COCCOCCOCCO | -0.5
in COCCOCCOCCOC | -0.7
in COCCOCCOCCOCCOC | -0.77
in CS(C)=O | -0.69
in Cc1ccc(C)cc1 | -0.45
in Cc1cccc(C)c1 | -0.45
in Cc1ccccc1 | -0.48
in Cc1ccccc1C | -0.43
in ClC(Cl)(Cl)Cl | -0.61
in ClC(Cl)Cl | -0.61
in ClCCCl | -0.78
in ClCCl | -0.68
in Clc1ccccc1 | -0.5
in Nc1ccccc1 | -0.44
in O | 0.11
in O=C1CCCC1 | -0.89
in O=C1CCCCC1 | -0.79
in O=CN1CCOCC1 | -0.71
in OCCCOCCCO | -0.25
in OCCO | -0.17
in OCCOCCO | -0.28
in OCc1ccccc1 | -0.36
in c1ccccc1 | -0.58

Cc1ccccc1Cl
Details | solvation free energy, 298 K [kcal/mol]
in O | -1.14

Reference: the CombiSolv-Exp solvation set (Vermeire and Green 2021)
